Measurements from patent US20090234014A1, “Naphthalene-Disulfonamides Useful for the Treatment of Inflammation” (priority 2005, published 2009).

target: T1, mPGES-1 (Homo sapiens, UniProt O14684); test: mPGES-1 assay: conversion of PGH2 to PGE2, PGE2 measured by HPLC; format: biochemical; conditions: mPGES-1 expressed in E. coli, membrane fraction; 25 min preincubation with inhibitor, 60 s with PGH2, room temperature; read-out: IC50 values
T1 construct: made in house; host or cells: E. coli (membrane fraction)
T1 sequence (O14684 1-152): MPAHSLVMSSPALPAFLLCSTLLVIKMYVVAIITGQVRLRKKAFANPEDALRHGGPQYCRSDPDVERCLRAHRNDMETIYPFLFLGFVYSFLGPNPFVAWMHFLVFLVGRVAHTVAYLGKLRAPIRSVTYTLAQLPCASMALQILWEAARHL
Description: In the assay mPGES-1 catalyses the reaction where the substrate PGH2 is converted to PGE2. mPGES-1 is expressed in E. coli and the membrane fraction is dissolved in 20 mM NaPi-buffer pH 8.0 and stored at −80° C. In the assay mPGES-1 is dissolved in 0.1M KPi-buffer pH 7.35 with 2.5 mM glutathione. The stop solution consists of H2O/MeCN (7/3), containing FeCl2 (25 mM) and HCl (0.15 M). The assay is performed at room temperature in 96-well plates. Analysis of the amount of PGE2 is performed with reversed phase HPLC (Waters 2795 equipped with a 3.9×150 mm C18 column). The mobile phase consists of H2O/MeCN (7/3), containing TFA (0.056%), and absorbance is measured at 195 nm with a Waters 2487 UV-detector.
The following is added chronologically to each well: • 1. 100 μL mPGES-1 in KPi-buffer with glutathione. Total protein concentration: 0.02 mg/mL. • 2. 1 μL inhibitor in DMSO. Incubation of the plate at room temperature for 25 minutes. • 3. 4 μL of a 0.25 mM PGH2 solution. Incubation of the plate at room temperature for 60 seconds. • 4. 100 μL stop solution. • 180 μL per sample is analyzed with HPLC.

| Compound | IC50 [nM] |
| --- | --- |
| O=S(=O)(Nc1ccccc1C(F)(F)F)c1cc(S(=O)(=O)Nc2ccccc2C(F)(F)F)c2cc(O)ccc2c1 [Example 9, N^1,N^3-di(2-trifluoromethylphenyl)-7-hydroxynaphthalene-1,3-disulfonamide] | 4100 |
| Cc1ccc(NS(=O)(=O)c2cc(S(=O)(=O)Nc3ccc(C)cc3)c3ccccc3c2)cc1 [Example 20, N^1,N^3-di(p-tolyl)naphthalene-1,3-disulfonamide] | 3700 |

Next, values leading:

| IC50 [nM] | Compound |
| --- | --- |
| 1700 | Cc1c(Cl)cccc1NS(=O)(=O)c1cc(S(=O)(=O)Nc2cccc(Cl)c2C)c2ccccc2c1 [Example 15, N^1,N^3-di(3-chloro-2-methylphenyl)naphthalene-1,3-disulfonamide] |
| 1100 | Cc1cc(C)c(NS(=O)(=O)c2cc(S(=O)(=O)Nc3c(C)cc(C)cc3C)c3cc(O)ccc3c2)c(C)c1 [Example 3, N^1,N^3-di(mesityl)-7-hydroxynaphthalene-1,3-disulfonamide] |
| 1200 | Cc1ccc(Cl)cc1NS(=O)(=O)c1cc(S(=O)(=O)Nc2cc(Cl)ccc2C)c2cc(O)ccc2c1 [Example 7, N^1,N^3-di(5-chloro-2-methylphenyl)-7-hydroxynaphthalene-1,3-disulfonamide] |
| 1700 | Cc1cccc(C)c1NS(=O)(=O)c1cc(S(=O)(=O)Nc2c(C)cccc2C)c2ccccc2c1 [Example 11, N^1,N^3-di(2,6-xylyl)naphthalene-1,3-disulfonamide] |
| 1300 | Cc1ccc(Cl)cc1NS(=O)(=O)c1cc(S(=O)(=O)Nc2cc(Cl)ccc2C)c2ccccc2c1 [Example 16, N^1,N^3-di(5-chloro-2-methylphenyl)naphthalene-1,3-disulfonamide] |

same assay, conditions: mPGES-1 expressed in E. coli, membrane fraction; stated as 10 μM or below; read-out: concentration exhibiting 50% inhibition of mPGES-1

| IC50 [nM] | Compound |
| --- | --- |
| ≤ 10000 | O=S(=O)(Nc1ccccc1)c1cc(S(=O)(=O)Nc2ccccc2)c2cc(O)ccc2c1 [N^1,N^3-Diphenyl-7-hydroxynaphthalene-1,3-disulfonamide] |
